Measurements reported in ChEMBL document CHEMBL1201862, “PubChem BioAssay data set” (2004).
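Following 48 hours of exposure in 96-well plates, responses at five concentrations were used to interpolate endpoints linearly. The concentration for 50% growth inhibition is given as GI50.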 Calls of active or inactive are those of the source. Rule as the data show it: active = GI50 up to about 1.1 µM and inactive = higher.

What was measured:
Assay in all cases: NCI tumour cell line growth inhibition, 48 h
[1] = system: UACC-62
[2] = system: Malme-3M
[3] = system: HOP-62
[4] = system: OVCAR-4
[5] = system: SK-MEL-28
[6] = system: SF-295
[7] = system: LOX IMVI
[8] = system: ACHN
[9] = system: A549
[10] = system: SF-268
[11] = system: OVCAR-8
[12] = system: HT-29
[13] = system: HCT-116
[14] = system: SK-MEL-5
[15] = system: NCI-H460
[16] = system: A498

Row | Structure (SMILES) | GI50 [1] | GI50 [2] | GI50 [3] | GI50 [4] | GI50 [5] | GI50 [6] | GI50 [7] | GI50 [8] | GI50 [9] | GI50 [10] | GI50 [11] | GI50 [12] | GI50 [13] | GI50 [14] | GI50 [15] | GI50 [16]
1 | O=C1N=C2Sc3ccc4ccccc4c3N2C1=O | 40.5 µM (inactive) | 19.1 µM (inactive) | 19.2 µM (inactive) | 17 µM (inactive) | 27 µM (inactive) | 18.6 µM (inactive) | 19.2 µM (inactive) | 28.8 µM (inactive) | 19.6 µM (inactive) | 24.7 µM (inactive) | 18.4 µM (inactive) | 32.7 µM (inactive) | 17.7 µM (inactive) | 22.4 µM (inactive) | 25.1 µM (inactive) | 
2 | CC1(C)COC(C23C4C5C2C2C3C4C52I)=N1 (centres undefined) | > 100 µM (inactive) | > 100 µM (inactive) | > 100 µM (inactive) | > 100 µM (inactive) | > 100 µM (inactive) | > 100 µM (inactive) |  | > 100 µM (inactive) | > 100 µM (inactive) | > 100 µM (inactive) | > 100 µM (inactive) | > 100 µM (inactive) |  | > 100 µM (inactive) | > 100 µM (inactive) | > 100 µM (inactive)
3 | CCOC(=O)C1C(=O)c2cccc(OC)c2C2COC(=O)N12 (centres undefined) | > 100 µM (inactive) | > 100 µM (inactive) | > 100 µM (inactive) | > 100 µM (inactive) | > 100 µM (inactive) | > 100 µM (inactive) | > 100 µM (inactive) | > 100 µM (inactive) | > 100 µM (inactive) | > 100 µM (inactive) | > 100 µM (inactive) | > 100 µM (inactive) | > 100 µM (inactive) | > 100 µM (inactive) | > 100 µM (inactive) | 
4 | c1ccc(SC(CCCCC(Sc2ccccc2)Sc2ccccc2)Sc2ccccc2)cc1 | > 100 µM (inactive) |  | > 100 µM (inactive) | > 100 µM (inactive) | > 100 µM (inactive) | > 100 µM (inactive) | > 100 µM (inactive) | > 100 µM (inactive) | > 100 µM (inactive) | > 100 µM (inactive) | > 100 µM (inactive) |  | > 100 µM (inactive) | > 100 µM (inactive) | > 100 µM (inactive) | > 100 µM (inactive)
5 | O=c1[nH]nc(-c2ccccc2)c(-c2ccccc2)c1-n1nc(-c2ccccc2)c2ccccc2c1=O | > 100 µM (inactive) | > 100 µM (inactive) | > 100 µM (inactive) | > 100 µM (inactive) | > 100 µM (inactive) | 43.2 µM (inactive) |  | 50.8 µM (inactive) | 83.4 µM (inactive) | > 100 µM (inactive) | 92 µM (inactive) | 68.5 µM (inactive) | 83.9 µM (inactive) | > 100 µM (inactive) | 90.6 µM (inactive) | > 100 µM (inactive)
6 | Cc1ccc(NC(=O)C(=O)C(C(=O)/C=C/c2ccccc2)C2OC(=O)c3ccccc32)c(C)c1 (centres undefined) | > 100 µM (inactive) | > 100 µM (inactive) | > 100 µM (inactive) | > 100 µM (inactive) | > 100 µM (inactive) | > 100 µM (inactive) | > 100 µM (inactive) | > 100 µM (inactive) | > 100 µM (inactive) | > 100 µM (inactive) |  | > 100 µM (inactive) | > 100 µM (inactive) | > 100 µM (inactive) | > 100 µM (inactive) | > 100 µM (inactive)
7 | CC1/C=C/[C@@]2(C)CCC(C(C)(C)O)C2C(O)C[C@](C)(O)/C=C/C1 (some centres undefined) | > 100 µM (inactive) | > 100 µM (inactive) | > 100 µM (inactive) | > 100 µM (inactive) | > 100 µM (inactive) | > 100 µM (inactive) | > 100 µM (inactive) | > 100 µM (inactive) | > 100 µM (inactive) | > 100 µM (inactive) | > 100 µM (inactive) | > 100 µM (inactive) | > 100 µM (inactive) | > 100 µM (inactive) | > 100 µM (inactive) | > 100 µM (inactive)
8 | COc1cc2c(c(OC)c1OC)-c1ccc(SC)c(=O)cc1[C@@H](NCc1cccc([N+](=O)[O-])c1)CC2 | < 0.01 µM (active) | < 0.01 µM (active) |  | < 0.01 µM (active) |  | < 0.01 µM (active) | < 0.01 µM (active) | < 0.01 µM (active) | < 0.01 µM (active) | < 0.01 µM (active) | < 0.01 µM (active) | < 0.01 µM (active) | < 0.01 µM (active) | < 0.01 µM (active) | < 0.01 µM (active) | 
9 | COc1ccc2oc(-c3ccc(OC)c(OC)c3OC)cc(=O)c2c1 | 55.2 µM (inactive) | 40.7 µM (inactive) | 70.3 µM (inactive) | 38.7 µM (inactive) | 62.2 µM (inactive) | 51.6 µM (inactive) | 46.8 µM (inactive) | 61.8 µM (inactive) | 36.6 µM (inactive) | 36.4 µM (inactive) |  | 48.2 µM (inactive) | 34.6 µM (inactive) |  |  | 
